Values joined by “and” are separate entries in the source; they are usually repeats but may differ in a detail not shown here. Equal entries are not always repeated.
How the values were obtained:
APOE deficient mice [1] = assay: Example 2: aortic atheromatous lesion area by Oil red O staining in APOE deficient mice; type: in vivo, mouse; settings: end of the 24 week treatment period
Experimental: (§1) This example evaluated the effects of a tocopheryl phosphate mixture (TPm) (mono-tocopheryl phosphate and di-tocopheryl phosphate) on the development of atherosclerotic lesions in male APOE deficient mice.
(§2) Twenty-eight mice were divided into 4 groups: 2 control groups, a tocopherol acetate (TA) group (150 mg TA/kg feed) and a TPm group (200 mg TPm/kg feed containing 7% fat).
‘Induction phase’—The induction phase consisted of the first 16 weeks of the treatment period. During this period the animals were fed a mouse pellet diet low in vitamin E (containing less than 20 mg vitamin E per kg food, with a 7% total fat; modified version of the standard AIN93G rodent diet (SF05-040, Specialty feeds, Glen Forrest, Wash. Australia). Control animals were fed the diet alone, while TA-feed contained 150 mg TA/kg feed and TPm-feed contained 200 mg TPm/kg feed. These feeds delivered on average doses of 21 and 26 mg/kg body weight, respectively. The 26 mg/kg TPm dose was calculated to be the tocopherol equivalence of the TA dose. […]
Of the two control animal groups only one was placed on the SF04-055, HFHC diet, while the other control group was maintained on the SF05-040 mouse pellet diet (only 7% fat) for the entire treatment period 24 week treatment period (C24). […] The 26 mg/kg TPm dose was calculated to be the tocopherol equivalent to the TA dose. […]

APOE deficient mice [2] = assay: Example 2: plasma lipid levels in APOE deficient mice, compound in feed, induction and challenge phases; type: in vivo, mouse
Experimental: as §1, §2
‘Induction phase’—The induction phase consisted of the first 16 weeks of the treatment period.
‘Challenge phase’—This phase consisted of the final 8 weeks of the treatment period.
The 4 groups of animals were placed on the diet regimes outlined in the table below:
Of the two control animal groups only one was placed on the SF04-055, HFHC diet, while the other control group was maintained on the SF05-040 mouse pellet diet (only 7% fat) for the entire treatment period 24 week treatment period (C24). […] TA treated mice were fed pellets with 150 mg TA/kg feed and TPm treated mice were fed the pellets with 200 mg TPm/kg feed. […] The 26 mg/kg TPm dose was calculated to be the tocopherol equivalent to the TA dose.

[3] = Challenge phase (HFHC diet), week 24, TA 150 mg/kg feed, TPm 200 mg/kg feed
[4] = Induction phase, week 16, TA 150 mg/kg feed, TPm 200 mg/kg feed

## CC(=O)Oc1c(C)c(C)c2c(c1C)CCC(C)(CCC[C@H](C)CCC[C@H](C)CCCC(C)C)O2 (stereo partly drawn) [TA, Tocopherol Acetate]
APOE deficient mice [1]
  reduction in aortic lesion area / lesion formation compared to control mice on the same diet regime: 12%
APOE deficient mice [1]; HFHC diet final 8 weeks
  Atheromatous lesion area, % Lesion coverage (mean ± SD): 9.4% and 9.4 ± 1.1%
APOE deficient mice [2]; Baseline, week 0
  LDL-C level (mean ± SD): 8.85 ± 1.66 mmol/L
  total cholesterol level (mean ± SD): 12.75 ± 1.41 mmol/L
  triglyceride level (mean ± SD): 1.75 ± 0.25 mmol/L
APOE deficient mice [2]; [3]
  LDL-C level (mean ± SD): 18.98 ± 2.29 mmol/L
  total cholesterol level (mean ± SD): 47.13 ± 4.44 mmol/L
  triglyceride level (mean ± SD): 2.23 ± 0.29 mmol/L
APOE deficient mice [2]; [4]
  LDL-C level (mean ± SD): 6.51 ± 0.71 mmol/L
  total cholesterol level (mean ± SD): 14.47 ± 1.32 mmol/L
  triglyceride level (mean ± SD): 1.30 ± 0.22 mmol/L
APOE deficient mice [2]; after the challenge phase (week 24)
  reduction in plasma lipid levels: no significant reduction

Reference: patent US20090239827A1, “COMPOUNDS HAVING LIPID LOWERING PROPERTIES” (priority 2005, published 2009)
